The values that follow come from patent US12234247B2, “Heterocyclic compound and harmful arthropod-controlling composition containing same” (SUMITOMO CHEMICAL COMPANY, LIMITED, priority 2019, dated 2025).

In the assay the test system is cotton aphids (Aphis gossypil). The experiment in a line: Test method 1: foliar spray on cucumber seedlings infested with cotton aphids. The conditions noted are these: 200 ppm, spray 10 mL/seedling, counted 5 days after spraying, 25° C. The format is in vivo. As to the method:
Next, Test Examples are used to show effects of the Present compounds on harmful arthropods. In the following Test Examples, the tests were carried out at 25° C. […] Cucumber (Cucumis sativus) seedlings (on the developmental stage of the second true leaf) are planted in a container and approximately 30 cotton aphids (Aphis gossypil) (all stages of life) are released onto the cucumber seedlings. After 1 day, each of said diluted solutions is sprayed into the seedlings in a ratio of 10 mL/seedling. After additional 5 days, the number of the surviving insects is examined and the controlling value is calculated by the following equation. Controlling value (%)={1-(Cb×Tai)/(Cai×Tb)}×100 wherein the symbols in the equation represent the following meanings. • Cb: Number of the test insects in non-treated area; • Cai: Number of the surviving insects at the time of the investigation in non-treated area; • Tb: Number of the test insects in treated area; • Tai: Number of the surviving insects at the time of the investigation in treated area; Here, the “non-treated area” represents an area where the same treatment procedure as that of the treated area is done except for not using each test compound.

Consider `CCS(=O)(=O)c1c(-n2nc3ccc(C(F)(F)F)cn3c2=O)nc2ccc(C(F)(F)F)cn12` [compound 2], for which the controlling value is reported as no less than 90%.
